Experimental data from patent publication US20150065421A1, “BASAL INSULIN THERAPY” (SANOFI, priority 2012, published 2015).

Tested on: people at high risk for vascular disease with either IFG, IGT, or early type 2 diabetes
Test: ORIGIN trial: glycemic control (FPG, A1C)
Type: in vivo, human
Description: Participants were asked to self-administer daily subcutaneous saline injections and to check their capillary glucose levels during a 10 day run-in period. Adherent participants were then provided with lifestyle advice and randomly allocated to either insulin glargine (Lantus™) or standard approaches to glycaemic control. Participants allocated to insulin glargine who were also taking a thiazolidinedione stopped that medication at the time of randomization; otherwise the insulin glargine was added to their glycemic regimen. These participants were instructed to inject insulin glargine in the evening, starting at 2, 4 or 6 units (depending on their initial FPG) and to increase the dose at least once per week targeting a self-measured FPG level ≦5.3 mmol/l (95 mg/dl) and ≧4 mmol/l (72 mg/dl). […] If participants developed uncontrolled hyperglycemia, investigators were permitted to add rapid-acting insulin. No other glucose-lowering medication could be added or increased. FPG levels were measured in the local laboratory at every visit and the results were regularly reviewed along with the dose of insulin to ensure that insulin was being effectively trirated. People not diagnosed with diabetes by the time of the penultimate study visit down-titrated insulin glargine by 10 units per day and stopped any metformin that was prescribed.
Outcomes and other data were collected at scheduled study visits at 0.5, 1, 2, and 4 months after randomization and every 4 months thereafter. Weight, waist and hip circumference were measured annually. HbA1c levels were assayed in local laboratories at every visit for the first year and then annually in people without diabetes and every 4 months for people with diabetes. A first morning urine collection was sent centrally and assayed for creatinine and albumin at baseline, 2 yrs and study end.
Participants assigned to standard therapy continued their prior oral therapies and were managed according to the investigators' judgement and local guidelines for glycemic control and therapeutic approaches. Investigators were advised not to prescribe insulin for standard participants unless they were on full doses of 2 or more oral agents. If insulin was added glargine was not to be used. Participants assigned to basal insulin glargine who were taking a thiazolidinedione prior to randomization stopped this medication but continued to take other glucose-lowering agents. Insulin glargine (Lantus®, Sanofi) was added to their regimen starting at 2 to 6 units daily, based on fasting glucose levels. Participants were advised to inject the insulin in the evening and to self-titrate the dosage using a simple algorithm supported by the site investigators. Self-measured, plasma-referenced fasting capillary blood glucose tests were done at least twice-weekly to guide titration, with the goal of achieving and maintaining fasting glucose 5.3 mmol/l (≦95 mg/dl). Other oral agents could be continued, reduced, or discontinued as judged appropriate during treatment with insulin glargine. The only oral agent that could be added (if not previously used) was metformin, which the site investigator initiated for individual participants at doses of 500-1000 mg/day if judged necessary to limit the risk of hypoglycemia. The importance of lifestyle management was continuously reinforced in both treatment groups.
In addition to self-measured glucose tests, venous blood for measurement of fasting plasma glucose (FPG) and A1C at local laboratories was collected at intervals during treatment. In the case of A1C, measurements were done at baseline, yearly thereafter, and at the end of treatment for all participants. Measurements of FPG were done annually and at the end of treatment for all participants in the glargine treatment group, and at baseline, after 2 years, and at the end of treatment for those using standard therapy. […]

[1] = fully adjusted logistic regression, glargine vs standard care, p<0.001
[2] = participants with diabetes, 2 years
[3] = participants with diabetes, 5 years
[4] = participants with diabetes, 7 years
[5] = participants without diabetes, 5 years
[6] = without diabetes at entry, throughout randomized treatment, both regimens

Question: What does the source list for “(Gly A21) Arg (B31) Arg (B32) human insulin [insulin glargine]”?
Answer: A1c (%), median (interquartile range) (Year 1, baseline 6.4): 5.9 (5.5, 6.4) %; FPG (mM), median (interquartile range) (Year 1, baseline 6.9): 5.2 (4.6, 5.9) mM; A1c (%), median (interquartile range) (Year 2): 6.0 (5.5, 6.5) %; FPG (mM), median (interquartile range) (Year 2): 5.0 (4.4, 5.8) mM; A1c (%), median (interquartile range) (Year 3): 6.0 (5.6, 6.6) %; FPG (mM), median (interquartile range) (Year 3): 5.0 (4.4, 5.7) mM; A1c (%), median (interquartile range) (Year 4): 6.1 (5.7, 6.7) %; FPG (mM), median (interquartile range) (Year 4): 5.1 (4.5, 5.8) mM; A1c (%), median (interquartile range) (Year 5): 6.2 (5.7, 6.8) %; FPG (mM), median (interquartile range) (Year 5): 5.1 (4.5, 6.0) mM; A1c (%), median (interquartile range) (Year 6): 6.3 (5.8, 6.8) %; FPG (mM), median (interquartile range) (Year 6): 5.2 (4.6, 6.1) mM; A1c (%), median (interquartile range) (Year 7): 6.2 (5.8, 7.1) %; FPG (mM), median (interquartile range) (Year 7): 5.2 (4.5, 6.3) mM; increase in the likelihood of maintaining mean A1C below 6.5% for 5 years (allocation to basal insulin glargine vs standard care): 2-3 fold; participants achieving a FPG level ≦5.2 mmol/l (by 1 year, maintained throughout the trial): 50%; participants achieving A1C <6.5% (diabetic subgroup, 1 year, 47% before treatment): 74%; participants achieving A1C <7.0% (diabetic subgroup, 1 year, 66% before treatment): 88%; participants achieving A1C <7.0% (diabetic subgroup, 5 years): 77%; participants achieving A1C <6.5% (diabetic subgroup, after 5 years): 60%; people achieving FPG levels below 5.3 mmol/l (95 mg/dl) (for most of the trial): more than 50%; people achieving FPG levels ≦6.0 mmol/l (108 mg/dl) (for most of the trial): 75%; OR (95% CI), 1-year A1C 6.5% (attainment) [1]: 2.50 (2.29-2.74); OR (95% CI), 1-year A1C 7.0% (attainment) [1]: 2.735 (2.440-3.067); OR (95% CI), 5-year mean A1C 6.5% (maintenance) [1]: 2.98; OR (95% CI), 5-year mean A1C 7.0% (maintenance) [1]: 2.408 (2.122-2.732); OR (95% CI), 5-year mean A1C 6.5% (maintenance) (fully adjusted logistic regression, glargine vs standard care, p<0.001, listed as Glargine): 2.975 (2.671-3.315); median A1C (inter-quartile range) (participants with diabetes, 1 year, baseline 6.5): 6.0 (5.5-6.5) %; median FPG (inter-quartile range) (participants with diabetes, 1 year, baseline 7.2): 5.2 (4.6-5.9) mmol/l; median A1C (inter-quartile range) [2]: 6.0 (5.6-6.6) %; median FPG (inter-quartile range) [2]: 5.0 (4.4-5.8) mmol/l; median A1C (inter-quartile range) [3]: 6.3 (5.8-6.9) %; median FPG (inter-quartile range) [3]: 5.1 (4.5-6.1) mmol/l; median A1C (inter-quartile range) [4]: 6.3 (5.8-6.9) %; median FPG (inter-quartile range) [4]: 5.3 (4.5-6.4) mmol/l; median A1C (participants without diabetes, 1 year, baseline 5.7): 5.6%; median FPG (inter-quartile range) (participants without diabetes, 1 year, baseline 6.1): 5.0 (4.5-5.5) mmol/l; median FPG (inter-quartile range) (participants without diabetes, 2 years): 4.9 (4.5-5.5) mmol/l; median A1C [5]: 5.8%; median FPG (inter-quartile range) [5]: 5.0 (4.5-5.7) mmol/l; median FPG (inter-quartile range) (participants without diabetes, 7 years): 5.1 (4.5-5.8) mmol/l; participants achieving A1C <6.5% [6]: more than 75%; participants achieving A1C <7.0% [6]: more than 90%
